Test results: patent US20240425464A1, “Substituted Monohydrazides as Potent Antifungal Agents” (University of Kentucky Research Foundation, priority 2023, published 2024)
≈ marks a conversion by molar mass, not a printed value. Where two headings read alike, the source gives them in different places.

Tests used:
Experiment in all cases: MIC determination by in vitro antifungal assay
Type in all cases: cell-based
[1] = tested on: Candida glabrata ATCC 2001 (H); settings: ATCC 2001 in text
Protocol: (§1) 10 mg/mL stock solutions of compounds 1a-9j were prepared in dimethyl sulfoxide (DMSO) and were stored at −20° C. in the dark. The antifungal agent amphotericin B (AmB) was purchased from VWR (Radnor PA, USA). AmB was dissolved in DMSO at a final concentration of 5 mg/mL and was stored at −20° C., protected from light. Candida albicans American Type Culture Collection (ATCC) 10231 (strain A), C. albicans ATCC 64124 (B), and C. albicans ATCC MYA-2876 (C) were obtained from Utah State University. C. albicans ATCC 90819 (D), C. albicans ATCC MYA-2310 (E), C. albicans ATCC MYA-1237 (F), C. albicans ATCC MYA-1003 (G), Candida glabrata ATCC 2001 (H), Candida krusei ATCC 6258 (I), Candida parapsilosis ATCC 22019 (J), Cryptococcus neoformans ATCC MYA-895 (M), Aspergillus terreus ATCC MYA-3633 (N), and Aspergillus flavus ATCC MYA-3631 (0) were obtained from the American Type Culture Collection (ATCC; Manassas, VA, USA). Aspergillus nidulans ATCC 38163 (P) was obtained from University of Kentucky. Clinically derived Aspergillus fumigatus NRRL 163 (Q), A. fumigatus NRRL 5109 (R), and A. fumigatus NRRL 6113 (S) were obtained from Northern Regional Research Laboratory (NRRL). Candida auris 384 (K), C. auris 390 (L), and fungal strains 381-400 (including 10 C. auris (AR Bank #381-390), 3 Candida duobushaemulonii (AR Bank #391, AR Bank #392, and AR Bank #394), 2 Candida haemulonii (AR Bank #393 and AR Bank #395), 1 Kodameae ohmeri (AR Bank #396), 1 C. krusei (AR Bank #397), 1 Candida lusitaniae (AR Bank #398), and 2 Saccharomyces cerevisiae strains (AR Bank #399 and AR Bank #400)) were part of a larger fungal library from the AR Bank maintained by the Centers for Disease Control and Prevention (CDC; Atlanta, GA, USA). Filamentous fungi and yeasts were cultivated at 35° C. in RPMI 1640 medium (with L-glutamine, without sodium bicarbonate, Sigma-Aldrich, St. Louis, MO) buffered to a pH of 7.0 with 0.165 M morpholinepropanesulfonic acid (MOPS) buffer (Sigma-Aldrich). For cytotoxicity assays, HepG2 and the mouse macrophage cell line J774A.1 were obtained from University of Kentucky. The human embryonic kidney cell line, HEK-293, was bought from the ATCC. Mammalian cells were grown in Dulbecco's Modified Eagle's Medium (DMEM) (from VWR) with 10% fetal bovine serum (FBS) (from VWR) and 1% Pen/Strep (from ATCC). Cell lines were cultured at 37° C. with 5% CO2 and passaged by trypsinization with 0.05% trypsin: 0.53 mM EDTA (from Sigma-Aldrich).
(§2) The MIC values of compounds 1a-9j against yeast cells (strains A-P and 381-400) were determined in 96-well plates as described in the CLSI documents M27-A3 and M38-A2 with minor modifications.^2 A single colony of freshly prepared yeast cells was used to inoculate 5 mL of yeast extract peptone dextrose (YPD) broth prior to incubation overnight with shaking at 200 rpm at 35° C. From the actively growing yeast culture, 100 µL were then transferred to 900 μL of RPMI 1640 medium and re-adjusted to achieve OD600 of 0.12 (˜1×10^6 CFU/mL). The cell suspension was further diluted to achieve 1:100 in RPMI 1640 medium. 100 μL of cells were added to the wells of a 96-well microtiter plates that contained 100 µL of the compound solution to obtain concentrations of 0.06-31.3 μg/mL of compounds 1a-9j or AmB prior to incubation for 48 h at 35° C. […]

[2] = tested on: Candida krusei ATCC 6258 (I)
Protocol: as §1, §2

[3] = tested on: Candida parapsilosis ATCC 22019 (J)
Protocol: as §1, §2

[4] = strain H = C. glabrata ATCC 2004 (footnote)
[5] = strain J = C. parapsilosis ATCC 22019
[6] = Nakaseomyces glabratus, ATCC 2001 / ATCC 2004, strain H = C. glabrata ATCC 2004 (footnote), read-out: MIC
[7] = Pichia kudriavzevii, ATCC6258, strain I = C. krusei ATCC 6258, read-out: MIC
[8] = Lodderomyces parapsilosis, ATCC22019, strain J = C. parapsilosis ATCC 22019, read-out: MIC

For `O=C(NNc1cccc(F)c1)c1cccc(Br)n1` [Compound 6a], the MIC [1, 4] was over 31.3 μg/mL^−1, the MIC ([2]; strain I = C. krusei ATCC 6258) was 0.49 μg/mL^−1 and the MIC [3, 5] was 1.95 μg/mL^−1.
`COc1cccc(NNC(=O)c2ccc(Br)cn2)c1` [Compound 4c] gave an MIC [1, 6] of 15.6 µg/mL (≈ 48.4 µM), an MIC [2, 7] of 0.24 µg/mL (≈ 0.745 µM) and an MIC [3, 8] of 3.9 µg/mL (≈ 12.1 µM).
Work on `O=C(NNc1ccc(Cl)cc1)c1ccc(F)cn1` [Compound 3e] yielded an MIC [1, 4] of 7.8 μg/mL^−1, an MIC ([2]; strain I = C. krusei ATCC 6258) of 0.98 μg/mL^−1 and an MIC [3, 5] of 31.3 μg/mL^−1.
Work on `O=C(NNc1ccc(F)cc1)c1ccc(Br)cn1` [Compound 4d] yielded an MIC [1, 6] of over 31.3 µg/mL, an MIC [2, 7] of 0.98 µg/mL (≈ 3.16 µM) and an MIC [3, 8] of 7.8 µg/mL (≈ 25.2 µM).
For `COc1ccc(NNC(=O)c2ncc(F)cc2F)cc1` [Compound 7f], the MIC [1, 6] was 7.8 µg/mL (≈ 27.9 µM), the MIC [2, 7] was 0.98 µg/mL (≈ 3.51 µM) and the MIC [3, 8] was 7.8 µg/mL (≈ 27.9 µM).
For `O=C(NNc1ccc(F)cc1)c1nc(F)ccc1F` [Compound 8d], the MIC [1, 6] was 15.6 µg/mL (≈ 58.4 µM), the MIC [2, 7] was 0.24 µg/mL (≈ 0.898 µM) and the MIC [3, 8] was 7.8 µg/mL (≈ 29.2 µM).
`O=C(NNc1cc(F)ccc1F)c1ccccn1` [Compound 2h] was tested, and the MIC [1, 6] was 3.9 µg/mL (≈ 15.6 µM), the MIC [2, 7] was 0.24 µg/mL (≈ 0.963 µM) and the MIC [3, 8] was 3.9 µg/mL (≈ 15.6 µM).
For `O=C(NNc1cccc(F)c1)c1nc(F)ccc1F` [Compound 8a], the MIC [1, 4] was 15.6 μg/mL^−1, the MIC ([2]; strain I = C. krusei ATCC 6258) was 0.49 μg/mL^−1 and the MIC [3, 5] was 7.8 μg/mL^−1.
With `O=C(NNc1ccc(F)cc1)c1ccccn1` [Compound 2d] the MIC [1, 6] was 1.95 µg/mL (≈ 8.43 µM), the MIC [2, 7] was 0.12 µg/mL (≈ 0.519 µM) and the MIC [3, 8] was 1.95 µg/mL (≈ 8.43 µM).
Compound `O=C(NNc1cccc(Cl)c1)c1ccc(F)cc1F` [Compound 1b] has an MIC [1, 6] of over 31.3 µg/mL, an MIC [2, 7] of 0.98 µg/mL (≈ 3.47 µM) and an MIC [3, 8] of 3.9 µg/mL (≈ 13.8 µM).
With `O=C(NNc1cc(Cl)cc(Cl)c1)c1ccccn1` [Compound 2j] the MIC [1, 6] was 7.8 µg/mL (≈ 27.6 µM), the MIC [2, 7] was 0.98 µg/mL (≈ 3.47 µM) and the MIC [3, 8] was 1.95 µg/mL (≈ 6.91 µM).
`COc1ccc(NNC(=O)c2cccc(F)n2)cc1` [Compound 5f] was tested, and the MIC [1, 6] was 0.98 µg/mL (≈ 3.75 µM), the MIC [2, 7] was 0.49 µg/mL (≈ 1.88 µM) and the MIC [3, 8] was 7.8 µg/mL (≈ 29.9 µM).
`COc1ccc(NNC(=O)c2cccc(Br)n2)cc1` [Compound 6f] showed an MIC [1, 6] of 1.95 µg/mL (≈ 6.05 µM), an MIC [2, 7] of 0.98 µg/mL (≈ 3.04 µM) and an MIC [3, 8] of 3.9 µg/mL (≈ 12.1 µM).
`O=C(NNc1ccc(Cl)cc1)c1ccc(F)cc1F` [Compound 1e] gave an MIC [1, 4] of 3.9 μg/mL^−1, an MIC ([2]; strain I = C. krusei ATCC 6258) of 15.6 μg/mL^−1 and an MIC [3, 5] of 31.3 μg/mL^−1.
`O=C(NNc1cccc(F)c1)c1ncc(F)cc1F` [Compound 7a] gave an MIC [1, 4] of 31.3 μg/mL^−1, an MIC ([2]; strain I = C. krusei ATCC 6258) of 0.24 μg/mL^−1 and an MIC [3, 5] of 1.95 μg/mL^−1.
`O=C(NNc1cccc(F)c1)c1cccc(F)n1` [Compound 5a] was tested, and the MIC [1, 4] was 31.3 μg/mL^−1, the MIC ([2]; strain I = C. krusei ATCC 6258) was 0.24 μg/mL^−1 and the MIC [3, 5] was 7.8 μg/mL^−1.
`O=C(NNc1ccc(F)cc1)c1cccc(F)n1` [Compound 5d] was tested, and the MIC [1, 6] was 15.6 µg/mL (≈ 62.6 µM), the MIC [2, 7] was 0.49 µg/mL (≈ 1.97 µM) and the MIC [3, 8] was 3.9 µg/mL (≈ 15.6 µM).
